In patent US12559506B2, “Indazole based compounds and associated methods of use” (Arvinas Operations, Inc., priority 2021, dated 2026):
Read-outs that look alike come from different tables or passages of the source.

What was measured:
[1] = target: T1, wildtype LRRK2 (Homo sapiens, UniProt Q5S007); assay: LRRK2 degradation assay, HiBit-tagged wildtype LRRK2 expressed from plasmid in HEK293 cells (Nano-Glo Dual-Luciferase); assay type: cell-based; conditions: 24 hours; for Dmax: read-out: **WT Dmax (%); for DC50: read-out: *WT DC50
T1 construct: expressed in transfected cells; host or cells: HEK293 (ATCC CRL-1573), transient transfection, mammalian expression vector with ubiquitin promoter
T1 sequence (Q5S007 whole entry): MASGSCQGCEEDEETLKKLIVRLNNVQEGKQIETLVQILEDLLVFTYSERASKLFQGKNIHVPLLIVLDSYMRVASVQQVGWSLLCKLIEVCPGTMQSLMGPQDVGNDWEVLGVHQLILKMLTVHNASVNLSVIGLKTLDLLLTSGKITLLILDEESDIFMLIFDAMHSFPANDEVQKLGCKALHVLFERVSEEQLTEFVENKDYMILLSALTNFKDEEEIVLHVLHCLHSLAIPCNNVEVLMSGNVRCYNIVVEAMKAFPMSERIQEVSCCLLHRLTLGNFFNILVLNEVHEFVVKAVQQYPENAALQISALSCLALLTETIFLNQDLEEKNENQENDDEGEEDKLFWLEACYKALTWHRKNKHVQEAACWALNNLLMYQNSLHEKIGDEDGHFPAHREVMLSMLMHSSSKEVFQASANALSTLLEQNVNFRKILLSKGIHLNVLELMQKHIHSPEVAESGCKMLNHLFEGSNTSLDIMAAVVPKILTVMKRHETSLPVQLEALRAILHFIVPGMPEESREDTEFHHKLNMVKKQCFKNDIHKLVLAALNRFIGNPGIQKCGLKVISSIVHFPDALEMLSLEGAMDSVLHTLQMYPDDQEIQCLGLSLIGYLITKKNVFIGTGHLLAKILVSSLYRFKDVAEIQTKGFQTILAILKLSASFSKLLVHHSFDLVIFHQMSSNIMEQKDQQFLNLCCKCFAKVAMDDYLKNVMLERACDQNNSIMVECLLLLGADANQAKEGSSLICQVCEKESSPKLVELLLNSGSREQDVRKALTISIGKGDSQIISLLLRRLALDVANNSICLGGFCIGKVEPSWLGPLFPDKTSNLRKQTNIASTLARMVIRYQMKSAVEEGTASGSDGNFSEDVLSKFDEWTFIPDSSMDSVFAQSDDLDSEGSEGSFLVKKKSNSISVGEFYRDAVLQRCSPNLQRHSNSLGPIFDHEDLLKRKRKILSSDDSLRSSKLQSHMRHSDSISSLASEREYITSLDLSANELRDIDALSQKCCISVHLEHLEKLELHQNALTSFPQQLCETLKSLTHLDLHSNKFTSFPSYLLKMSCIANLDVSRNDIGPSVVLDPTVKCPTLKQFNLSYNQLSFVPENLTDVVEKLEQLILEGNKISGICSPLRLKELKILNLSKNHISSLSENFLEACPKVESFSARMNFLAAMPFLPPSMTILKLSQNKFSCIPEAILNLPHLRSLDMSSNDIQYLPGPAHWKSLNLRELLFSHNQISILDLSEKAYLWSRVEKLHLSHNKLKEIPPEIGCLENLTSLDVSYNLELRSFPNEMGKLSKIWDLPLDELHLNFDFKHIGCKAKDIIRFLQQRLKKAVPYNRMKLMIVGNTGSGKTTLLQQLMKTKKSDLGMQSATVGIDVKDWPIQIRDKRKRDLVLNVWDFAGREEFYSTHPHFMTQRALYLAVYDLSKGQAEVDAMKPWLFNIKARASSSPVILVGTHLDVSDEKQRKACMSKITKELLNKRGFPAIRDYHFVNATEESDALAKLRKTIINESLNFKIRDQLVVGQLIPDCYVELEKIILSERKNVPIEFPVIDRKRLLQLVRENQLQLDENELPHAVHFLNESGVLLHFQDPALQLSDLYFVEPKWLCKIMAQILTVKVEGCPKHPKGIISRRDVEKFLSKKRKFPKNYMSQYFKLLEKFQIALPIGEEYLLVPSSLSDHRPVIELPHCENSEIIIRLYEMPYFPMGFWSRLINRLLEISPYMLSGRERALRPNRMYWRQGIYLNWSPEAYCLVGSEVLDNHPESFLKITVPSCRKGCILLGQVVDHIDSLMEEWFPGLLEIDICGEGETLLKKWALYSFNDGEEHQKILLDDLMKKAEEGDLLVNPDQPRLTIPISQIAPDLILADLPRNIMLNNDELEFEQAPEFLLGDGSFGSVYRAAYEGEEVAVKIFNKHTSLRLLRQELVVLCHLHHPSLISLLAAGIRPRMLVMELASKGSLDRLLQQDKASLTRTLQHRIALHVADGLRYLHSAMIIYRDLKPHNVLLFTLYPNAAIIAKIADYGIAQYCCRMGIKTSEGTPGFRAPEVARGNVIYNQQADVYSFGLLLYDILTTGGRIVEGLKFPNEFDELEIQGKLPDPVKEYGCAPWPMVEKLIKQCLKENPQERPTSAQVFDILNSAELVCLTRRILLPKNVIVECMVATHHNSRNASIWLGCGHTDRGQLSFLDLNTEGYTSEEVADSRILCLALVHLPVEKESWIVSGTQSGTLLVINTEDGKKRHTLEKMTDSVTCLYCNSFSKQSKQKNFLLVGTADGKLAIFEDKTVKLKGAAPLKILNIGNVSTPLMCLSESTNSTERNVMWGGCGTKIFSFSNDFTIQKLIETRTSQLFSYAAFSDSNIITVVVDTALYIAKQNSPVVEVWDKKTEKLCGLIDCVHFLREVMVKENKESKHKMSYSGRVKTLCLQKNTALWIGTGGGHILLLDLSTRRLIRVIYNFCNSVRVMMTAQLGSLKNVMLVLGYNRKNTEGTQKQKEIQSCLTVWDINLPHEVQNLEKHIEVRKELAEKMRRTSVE
Text: (§1) Exemplary Assay for Testing LRRK2 Degradation Driven by Exemplary Hetero-Bifunctional Compounds Designed to Target LRRK2
(§2) The assay measures the degradation of wildtype and G2019S LRRK2 tagged with a HiBit tag on the C-terminus of the protein that was expressed from a mammalian expression vector, driven by the ubiquitin promoter in HEK293 cells. Each compound dose-response was repeated on two separate days, on three separate plates each day.
(§3) Plasmid Preparation. Transfection mixes were assembled as follows and incubated for 30 minutes at room temperature. In a 15 mL tube, 5.25 mL Opti-MEM (no additions) was mixed with 17 μL Firefly Luciferase plasmid at 1 μg/μL and 158 μL WT plasmid DNA at 1 μg/μL (175 μg total DNA) were mixed by flicking. In a new 15 mL tube, 5.25 mL OptiMEM was mixed with 17 μL Firefly Luciferase plasmid at 1 μg/μL and 158 μL G2019S plasmid DNA at 1 μg/μL (175 μg total DNA) were mixed by flicking. X-tremeGene HP was mixed thoroughly using a vortex. Next, 175 μL was added to each tube and flicked to mix. Both tubes were left to incubate for 30 minutes at room temperature.
(§4) While the transfection mixes were incubating, HEK293 cells (acquired from ATCC; ATCC CRL-1573) were harvested with trypsin. Once cells are detached, the cells were resuspended in 12 mL OptiMEM+5% FBS and transferred to a 50 mL tube. The cells were mixed well and counted. Using OptiMEM+5% FBS, the cells were diluted in two 250 mL conical tubes at 0.71×10^6 cells/mL in 70 mL. One tube was labeled “WT” and the other “G2019S”. The WT and G2019S transfection mixes were added dropwise to the corresponding 250 mL tubes. The tubes were mixed first by pipetting then by swirling. The tubes were incubated at room temperature for at least 5 minutes.
(§5) Each tube was swirled before dispensing and after every three plates. Seventy microliters of cells were dispensed with WT or G2019S DNA to seven plates each. Three plates of each were tested with compound plate one (preparation described below) and three plates of each were tested with compound plate two (preparation described below). The first plate from each set served as a “prime” plate and was not used to test compounds. Each plate was incubated in the hood for 10 minutes before placing in the 37° C. incubator for 24 hours.
(§6) Preparation of Compound and Assay Plates. Two compound plates were made using 96 well polypropylene plates. Compounds were made up at 10 mM and were diluted to 1 mM in 30 μL. Each dose response curve included a well of DMSO, as a negative control and for normalization, and a well of 0.5 μM of Compound 4 as a positive control. In addition to seven test compounds, each plate also included a dose response of Compound 4. The compound plates were spun down along at 1200 rpm for 2 minutes.
(§7) The two compound plates were then mixed and 2 μL was diluted in intermediate plates having 248 μL of Opti-Mem in each well. Next, 10 μL diluted compounds from the intermediate plates were added to each test plate (three WT and three G2019S plates per compound plate for a total of 12 assay plates). The plates were incubated for 24 hours at 37° C.
(§8) All assay plates and all Nano-Glo Dual-Luciferase Reporter Assay System components (except for the DLR substrate) were equilibrated to room temperature. Next, the luciferase buffer was mixed with the lyophilized amber bottle until fully dissolved, and 75 μL of the luciferase mixture was added to each well of each assay plate. The assay plates were incubated for 10 minutes at room temperature with shaking for at least 5 minutes, and then read on a plate reader.
(§9) Developing Plates and Analyzing Data. One milliliter of DLR substrate and 1 mL LgBiT Protein were added to the Stop and Glo buffer, and 75 μL of the mixture was added to each well of each plate. Optically clear seals were added to each plate and each plate was incubated for 20 minutes with shaking for at least 10 minutes, and then read on a plate reader. […]

[2] = target: T2, G2019S LRRK2 (Homo sapiens, UniProt Q5S007, G2019S); assay: LRRK2 degradation assay, HiBit-tagged G2019S LRRK2 expressed from plasmid in HEK293 cells (Nano-Glo Dual-Luciferase); assay type: cell-based; conditions: 24 hours
T2 construct: expressed in transfected cells; host or cells: HEK293 (ATCC CRL-1573), transient transfection, mammalian expression vector with ubiquitin promoter
T2 sequence (Q5S007 whole entry G2019S): as the sequence (Q5S007 whole entry) above, with G2019S counted along it
Text: as §1, §2, §3, §4, §5, §6, §7, §8, §9

[3] = HiBit-tagged wildtype LRRK2 in HEK293 cells
[4] = HiBit-tagged G2019S LRRK2 in HEK293 cells
[5] = HiBit-tagged wildtype LRRK2, HEK293 cells
[6] = HiBit-tagged G2019S LRRK2, HEK293 cells

Row | Compound | Dmax [1, 3] | DC50 [1, 3] | DC50 [2, 4] | Dmax [2, 4] | Dmax [1, 5] | DC50 [1, 5] | DC50 [2, 6] | Dmax [2, 6]
1 | CC1(Oc2ccc3[nH]nc(-c4ccnc(N5CCC(CC6CCN(C(=O)C7CCN(c8ccc9c(c8)C(=O)N(C8CCC(=O)NC8=O)C9=O)CC7)CC6)CC5)c4)c3c2)CC1 (stereo not drawn) [Compound 93, 2-(2,6-dioxopiperidin-3-yl)-5-(4-{4-[(1-{4-[5-(1-methylcyclopropoxy)-1H-indazol-3-yl]pyridin-2-yl}piperidin-4-yl)methyl]piperidine-1-carbonyl}piperidin-1-yl)-2,3-dihydro-1H-isoindole-1,3-dione] | 50 to 70% | 10 to 50 nM | 10 to 50 nM | < 50% |  |  |  | 
2 | CC1(Oc2ccc3[nH]nc(-c4ccnc(N5CC6(CCN6CC6CCN(CC7CCN(c8ccc9c(c8)C(=O)N(C8CCC(=O)NC8=O)C9=O)CC7)CC6)C5)c4)c3c2)CC1 (stereo not drawn) [Compound 163, 2-(2,6-dioxo-3-piperidyl)-5-[4-[[4-[[6-[4-[5-(1-methylcyclopropoxy)-1H-indazol-3-yl]-2-pyridyl]-1,6-diazaspiro[3.3]heptan-1-yl]methyl]-1-piperidyl]methyl]-1-piperidyl]isoindoline-1,3-dione] |  |  |  |  | < 50% | 10 to 50 nM | 10 to 50 nM | < 50%
3 | C[C@H]1CN(c2cc(-c3[nH]nc4ccc(OC5(C)CC5)cc34)ncn2)CCN1CC1CCN(CC2CCN(c3cccc4c3CN(C3CCC(=O)NC3=O)C4=O)CC2)CC1 (stereo partly drawn) [Compound 145, 3-[4-[4-[[4-[[(2S)-2-methyl-4-[6-[5-(1-methylcyclopropoxy)-2H-indazol-3-yl]pyrimidin-4-yl]piperazin-1-yl]methyl]-1-piperidyl]methyl]-1-piperidyl]-1-oxo-isoindolin-2-yl]piperidine-2,6-dione] | < 50% | < 10 nM | < 10 nM | 50 to 70% |  |  |  | 
4 | C[C@H]1CN(c2cc(-c3n[nH]c4ccc(OC5(C)CC5)cc34)ncn2)CCN1CCC1CCN(CC2CCN(c3cccc4c3C(=O)N(C3CCC(=O)NC3=O)C4=O)CC2)CC1 (stereo partly drawn) [Compound 138, 2-(2,6-dioxo-3-piperidyl)-4-[4-[[4-[2-[(2S)-2-methyl-4-[6-[5-(1-methylcyclopropoxy)-2H-indazol-3-yl]pyrimidin-4-yl]piperazin-1-yl]ethyl]-1-piperidyl]methyl]-1-piperidyl]isoindoline-1,3-dione] | ≥ 70% | 10 to 50 nM | < 10 nM | ≥ 70% |  |  |  | 
5 | CC1(Oc2ccc3[nH]nc(-c4ccnc(N5CCN(CC6(F)CCN(CC7CCN(c8ccc9c(c8)C(=O)N(C8CCC(=O)NC8=O)C9=O)CC7)CC6)CC5)c4)c3c2)CC1 (stereo not drawn) [Compound 80, 2-(2,6-dioxo-3-piperidyl)-5-[4-[[4-fluoro-4-[[4-[4-[5-(1-methylcyclopropoxy)-1H-indazol-3-yl]-2-pyridyl]piperazin-1-yl]methyl]-1-piperidyl]methyl]-1-piperidyl]isoindoline-1,3-dione] | < 50% | < 10 nM | < 10 nM | 50 to 70% |  |  |  | 
6 | C[C@H]1CN(c2cc(-c3n[nH]c4ccc(OC5(C)CC5)cc34)ccn2)CCN1CC1(F)CCN(CC2CCN(c3ccc4c(c3)C(=O)N(C3CCC(=O)NC3=O)C4=O)CC2)CC1 (stereo partly drawn) [Compound 81, 2-(2,6-dioxopiperidin-3-yl)-5-{4-[(4-fluoro-4-{[(2S)-2-methyl-4-{4-[5-(1-methylcyclopropoxy)-1H-indazol-3-yl]pyridin-2-yl}piperazin-1-yl]methyl}piperidin-1-yl)methyl]piperidin-1-yl}-2,3-dihydro-1H-isoindole-1,3-dione] | < 50% | < 10 nM | < 10 nM | < 50% |  |  |  | 
7 | CC1(Oc2ccc3[nH]nc(-c4ccnc(N5CCN(CC6(F)CCN(C(=O)C7CCN(c8ccc9c(c8)C(=O)N(C8CCC(=O)NC8=O)C9=O)CC7)CC6)CC5)c4)c3c2)CC1 (stereo not drawn) [Compound 97, 2-(2,6-dioxo-3-piperidyl)-5-[4-[4-fluoro-4-[[4-[4-[5-(1-methylcyclopropoxy)-1H-indazol-3-yl]-2-pyridyl]piperazin-1-yl]methyl]piperidine-1-carbonyl]-1-piperidyl]isoindoline-1,3-dione] | 50 to 70% | < 10 nM | < 10 nM | < 50% |  |  |  | 
8 | CC1(Oc2ccc3[nH]nc(-c4cc(N5CC[C@@H](CN6CCN(CC7CCN(c8ccc9c(c8)C(=O)N(C8CCC(=O)NC8=O)C9=O)CC7)CC6)C5)ncn4)c3c2)CC1 (stereo partly drawn) [Compound 167, 2-(2,6-dioxo-3-piperidyl)-5-[4-[[4-[[(3S)-1-[6-[5-(1-methylcyclopropoxy)-1H-indazol-3-yl]pyrimidin-4-yl]pyrrolidin-3-yl]methyl]piperazin-1-yl]methyl]-1-piperidyl]isoindoline-1,3-dione] |  |  |  |  | 50 to 70% | < 10 nM | < 10 nM | 50 to 70%
9 | CC1(Oc2ccc3[nH]nc(-c4ccnc(N5CC(CCC6CCN(CC7CCN(c8ccc9c(c8)C(=O)N(C8CCC(=O)NC8=O)C9=O)CC7)CC6)C5)c4)c3c2)CC1 (stereo not drawn) [Compound 165, 2-(2,6-dioxo-3-piperidyl)-5-[4-[[4-[2-[1-[4-[5-(1-methylcyclopropoxy)-1H-indazol-3-yl]-2-pyridyl]azetidin-3-yl]ethyl]-1-piperidyl]methyl]-1-piperidyl]isoindoline-1,3-dione] |  |  |  |  | < 50% | < 10 nM | < 10 nM | 50 to 70%
10 | CC1(Oc2ccc3[nH]nc(-c4cc(N5CCN(CCN6CCN(CC7CCN(c8ccc9c(c8)C(=O)N(C8CCC(=O)NC8=O)C9=O)CC7)CC6)CC5)ncn4)c3c2)CC1 (stereo not drawn) [Compound 54, 2-(2,6-dioxopiperidin-3-yl)-5-[4-({4-[2-(4-{6-[5-(1-methylcyclopropoxy)-1H-indazol-3-yl]pyrimidin-4-yl}piperazin-1-yl)ethyl]piperazin-1-yl}methyl)piperidin-1-yl]-2,3-dihydro-1H-isoindole-1,3-dione] | ≥ 70% | < 10 nM | < 10 nM | ≥ 70% |  |  |  | 
11 | CC1(Oc2ccc3[nH]nc(-c4cc(N5CCC(C(=O)N6CCC(CC7CCN(c8ccc9c(c8)C(=O)N(C8CCC(=O)NC8=O)C9=O)CC7)CC6)CC5)ncn4)c3c2)CC1 (stereo not drawn) [Compound 88, 2-(2,6-dioxo-3-piperidyl)-5-[4-[[1-[1-[6-[5-(1-methylcyclopropoxy)-1H-indazol-3-yl]pyrimidin-4-yl]piperidine-4-carbonyl]-4-piperidyl]methyl]-1-piperidyl]isoindoline-1,3-dione] | < 50% | 10 to 50 nM | 10 to 50 nM | 50 to 70% |  |  |  | 
12 | CC1(Oc2ccc3[nH]nc(-c4cc(N5CCC(CN=S6(=O)CCN(CC7CCN(c8ccc9c(c8)C(=O)N(C8CCC(=O)NC8=O)C9=O)CC7)CC6)CC5)ncn4)c3c2)CC1 (stereo not drawn) [Compound 63, 2-(2,6-dioxo-3-piperidyl)-5-[4-[[1-[[1-[6-[5-(1-methylcyclopropoxy)-1H-indazol-3-yl]pyrimidin-4-yl]-4-piperidyl]methylimino]-1-oxo-1,4-thiazinan-4-yl]methyl]-1-piperidyl]isoindoline-1,3-dione] | ≥ 70% | < 10 nM | < 10 nM | ≥ 70% |  |  |  | 
